Values quoted from earlier work in patent publication US20240148879A1, “GLP-1R, GIP-R AND/OR GCGR AGONISTS, FORMULATIONS, AND METHODS OF USE” (Spitfire Pharma LLC, priority 2021, published 2024).
Bridge positions count the residues as written; N and C are the ends. Ends that are not written are not given here.

Tests used:
[1] = 12 weeks

Compound	reduction in body weight [1] [%]	reduction in liver fat content (6 weeks) [%]	NASH-related alanine aminotransferase (ALT) reduction (compared with liraglutide alone)	degree of weight loss (over 26 weeks of administration) [%]
JNJ 64565111: a balanced dual agonist (HAQGTFTSDYSKYLDEKRAKEFVQWLMNTX; lactam 16-20; X not resolved here; also: Fc carrier conjugate)	8	–	–	–
CCCCCCCCCCCCCCCC(=O)N[C@@H](CCC(=O)NCCCC[C@H](NC(=O)[C@H](CC(=O)O)NC(=O)[C@H](CO)NC(=O)[C@@H](NC(=O)[C@H](Cc1ccccc1)NC(=O)[C@@H](NC(=O)CNC(=O)[C@H](CCC(N)=O)NC(=O)[C@H](CO)NC(=O)[C@@H](N)Cc1c[nH]cn1)[C@@H](C)O)[C@@H](C)O)C(=O)N[C@@H](CO)C(=O)N[C@@H](CCC(=O)O)C(=O)N[C@@H](Cc1ccc(O)cc1)C(=O)N[C@@H](CC(C)C)C(=O)N[C@@H](CC(=O)O)C(=O)N[C@@H](CO)C(=O)N[C@@H](CCC(=O)O)C(=O)N[C@@H](CCCNC(=N)N)C(=O)N[C@@H](C)C(=O)N[C@@H](CCCNC(=N)N)C(=O)N[C@@H](CC(=O)O)C(=O)N[C@@H](Cc1ccccc1)C(=O)N[C@H](C(=O)N[C@@H](C)C(=O)N[C@@H](Cc1c[nH]c2ccccc12)C(=O)N[C@@H](CC(C)C)C(=O)N[C@@H](CCC(=O)O)C(=O)N[C@@H](C)C(=O)NCC(=O)NCC(=O)O)C(C)C)C(=O)O [cotadutide]	–	39	greater improvement	5.4
